Source: ChEMBL document CHEMBL1138821, “Amino porphyrins as photoinhibitors of Gram-positive and -negative bacteria” (2004)
In brackets after ≈: the same amount, converted by molar mass.

How the values were obtained:
Type in all cases: functional
Staphylococcus aureus [1] = experiment: Minimal bacterial concentration against Staphylococcus aureus was evaluated
Staphylococcus aureus [2] = experiment: Minimal inhibitory concentration against Staphylococcus aureus was evaluated
Staphylococcus aureus [3] = experiment: Minimal inhibitory concentration against Staphylococcus aureus was evaluated; Range = 1.5-2 ug/mL
Escherichia coli [4] = experiment: Minimal bacterial concentration against Escherichia coli was evaluated; Range = 2-2.5 ug/mL
Staphylococcus aureus [5] = experiment: Minimal bacterial concentration against Staphylococcus aureus was evaluated; Range = 2-2.5 ug/mL
Staphylococcus aureus [6] = experiment: Minimal inhibitory concentration against Staphylococcus aureus was evaluated; Range = 1.5-2.0 ug/mL
Staphylococcus aureus [7] = experiment: Minimal inhibitory concentration against Staphylococcus aureus was evaluated; Range = 1-1.5 ug/mL
Staphylococcus aureus [8] = experiment: Minimal inhibitory concentration against Staphylococcus aureus was evaluated; Range = 0.5-1.0 ug/mL
Staphylococcus aureus [9] = experiment: Minimal bacterial concentration against Staphylococcus aureus was evaluated; Range = 1-1.5 ug/mL
Staphylococcus aureus [10] = experiment: Minimal inhibitory concentration against Staphylococcus aureus was evaluated; Range = 0-0.5 ug/mL
Escherichia coli [11] = experiment: Minimal bacterial concentration against Escherichia coli was evaluated; Range = 1.5-2.0 ug/mL
Staphylococcus aureus [12] = experiment: Minimal bacterial concentration against Staphylococcus aureus was evaluated; Range = 1.0-1.5ug/mL

In the case of Cc1ccc(C2c3ccc([nH]3)C(c3ccc(C)cc3)c3ccc([nH]3)C(c3ccccc3N)c3ccc([nH]3)C(c3ccc(C)cc3)c3ccc2[nH]3)cc1 (configuration not stated), the MBC (Staphylococcus aureus [1]) is reported as > 3 µg/mL and the MIC (Staphylococcus aureus [2]) is reported as > 2.5 µg/mL.

For C=CC1=C(C)/C2=C/c3[nH]c(c(C)c3C=C)/C=c3\[nH]/c(c(CCC(=O)NCCCCN(CCCN)CCCCN)c3C)=C\C3=NC(CC1=N2)C(C)=C3CCC(=O)NCCCCN(CCCN)CCCCN (configuration not stated), the MIC (Staphylococcus aureus [3]) was 2 µg/mL (≈ 2.08 µM), the MBC (Escherichia coli [4]) was 2.5 µg/mL (≈ 2.6 µM) and the MBC (Staphylococcus aureus [5]) was 2.5 µg/mL (≈ 2.6 µM).

Nc1ccc(C2c3ccc([nH]3)C(c3ccc(N)cc3)c3ccc([nH]3)C(c3ccccc3O[C@@H]3O[C@@H](CO)[C@@H](O)[C@H](O)[C@@H]3O)c3ccc([nH]3)C(c3ccc(N)cc3)c3ccc2[nH]3)cc1 (some centres not stated) was tested, and the MIC (Staphylococcus aureus [6]) was 2 µg/mL (≈ 2.37 µM) and the MBC (Staphylococcus aureus [1]) was > 1.5 µg/mL.

With Nc1ccc(C2c3ccc([nH]3)C(c3ccc(N)cc3)c3ccc([nH]3)C(c3ccc(O[C@@H]4O[C@@H](CO)[C@@H](O)[C@H](O)[C@@H]4O)cc3)c3ccc([nH]3)C(c3ccc(N)cc3)c3ccc2[nH]3)cc1 (some centres not stated) the MIC (Staphylococcus aureus [7]) was 1.5 µg/mL (≈ 1.78 µM) and the MBC (Staphylococcus aureus [1]) was > 1.5 µg/mL.

CC(N)C(=O)Nc1ccccc1C1c2ccc([nH]2)C(c2ccc(O[C@@H]3O[C@@H](CO)[C@@H](O)[C@H](O)[C@@H]3O)cc2)c2ccc([nH]2)C(c2ccc(O[C@@H]3O[C@@H](CO)[C@@H](O)[C@H](O)[C@@H]3O)cc2)c2ccc([nH]2)C(c2ccc(O[C@@H]3O[C@@H](CO)[C@@H](O)[C@H](O)[C@@H]3O)cc2)c2ccc1[nH]2 (some centres not stated) was tested, and the MIC (Staphylococcus aureus [6]) was 2 µg/mL (≈ 1.61 µM) and the MBC (Staphylococcus aureus [1]) was > 1.5 µg/mL.

CC(N)C(=O)Nc1ccc(C2c3ccc([nH]3)C(c3ccc(O[C@@H]4O[C@@H](CO)[C@@H](O)[C@H](O)[C@@H]4O)cc3)c3ccc([nH]3)C(c3ccc(O[C@@H]4O[C@@H](CO)[C@@H](O)[C@H](O)[C@@H]4O)cc3)c3ccc([nH]3)C(c3ccc(O[C@@H]4O[C@@H](CO)[C@@H](O)[C@H](O)[C@@H]4O)cc3)c3ccc2[nH]3)cc1 (some centres not stated) was tested, and the MIC (Staphylococcus aureus [7]) was 1.5 µg/mL (≈ 1.21 µM) and the MBC (Staphylococcus aureus [1]) was > 1.5 µg/mL.

Work on CC(N)C(=O)Nc1ccc(C2c3ccc([nH]3)C(c3ccc(O[C@@H]4O[C@@H](CO)[C@@H](O)[C@H](O)[C@@H]4O)cc3)c3ccc([nH]3)C(c3ccc(NC(=O)C(C)N)cc3)c3ccc([nH]3)C(c3ccc(O[C@@H]4O[C@@H](CO)[C@@H](O)[C@H](O)[C@@H]4O)cc3)c3ccc2[nH]3)cc1 (some centres not stated) yielded an MIC (Staphylococcus aureus [8]) of 1 µg/mL (≈ 0.87 µM) and an MBC (Staphylococcus aureus [9]) of 1.5 µg/mL (≈ 1.31 µM).

In the case of CC(N)C(=O)Nc1ccc(C2c3ccc([nH]3)C(c3ccc(NC(=O)C(C)N)cc3)c3ccc([nH]3)C(c3ccc(O[C@@H]4O[C@@H](CO)[C@@H](O)[C@H](O)[C@@H]4O)cc3)c3ccc([nH]3)C(c3ccc(O[C@@H]4O[C@@H](CO)[C@@H](O)[C@H](O)[C@@H]4O)cc3)c3ccc2[nH]3)cc1 (some centres not stated), the MIC (Staphylococcus aureus [8]) is reported as 1 µg/mL (≈ 0.87 µM) and the MBC (Staphylococcus aureus [9]) is reported as 1.5 µg/mL (≈ 1.31 µM).

With CC(N)C(=O)Nc1ccc(C2c3ccc([nH]3)C(c3ccc(NC(=O)C(C)N)cc3)c3ccc([nH]3)C(c3ccccc3O[C@@H]3O[C@@H](CO)[C@@H](O)[C@H](O)[C@@H]3O)c3ccc([nH]3)C(c3ccc(NC(=O)C(C)N)cc3)c3ccc2[nH]3)cc1 (some centres not stated) the MIC (Staphylococcus aureus [3]) was 2 µg/mL (≈ 1.89 µM) and the MBC (Staphylococcus aureus [1]) was > 1.5 µg/mL.

In the case of CC(N)C(=O)Nc1ccc(C2c3ccc([nH]3)C(c3ccc(NC(=O)C(C)N)cc3)c3ccc([nH]3)C(c3ccc(O[C@@H]4O[C@@H](CO)[C@@H](O)[C@H](O)[C@@H]4O)cc3)c3ccc([nH]3)C(c3ccc(NC(=O)C(C)N)cc3)c3ccc2[nH]3)cc1 (some centres not stated), the MIC (Staphylococcus aureus [7]) is reported as 1.5 µg/mL (≈ 1.42 µM) and the MBC (Staphylococcus aureus [1]) is reported as > 1.5 µg/mL.

For Nc1ccccc1C1c2ccc([nH]2)C(c2ccc(O[C@@H]3O[C@@H](CO)[C@@H](O)[C@H](O)[C@@H]3O)cc2)c2ccc([nH]2)C(c2ccc(O[C@@H]3O[C@@H](CO)[C@@H](O)[C@H](O)[C@@H]3O)cc2)c2ccc([nH]2)C(c2ccc(O[C@@H]3O[C@@H](CO)[C@@H](O)[C@H](O)[C@@H]3O)cc2)c2ccc1[nH]2 (some centres not stated), the MIC (Staphylococcus aureus [8]) was 1 µg/mL (≈ 0.855 µM) and the MBC (Staphylococcus aureus [1]) was > 1.5 µg/mL.

In the case of Nc1ccc(C2c3ccc([nH]3)C(c3ccc(O[C@@H]4O[C@@H](CO)[C@@H](O)[C@H](O)[C@@H]4O)cc3)c3ccc([nH]3)C(c3ccc(O[C@@H]4O[C@@H](CO)[C@@H](O)[C@H](O)[C@@H]4O)cc3)c3ccc([nH]3)C(c3ccc(O[C@@H]4O[C@@H](CO)[C@@H](O)[C@H](O)[C@@H]4O)cc3)c3ccc2[nH]3)cc1 (some centres not stated), the MIC (Staphylococcus aureus [7]) is reported as 1.5 µg/mL (≈ 1.28 µM) and the MBC (Staphylococcus aureus [9]) is reported as 1.5 µg/mL (≈ 1.28 µM).

For Nc1ccc(C2c3ccc([nH]3)C(c3ccc(O[C@@H]4O[C@@H](CO)[C@@H](O)[C@H](O)[C@@H]4O)cc3)c3ccc([nH]3)C(c3ccc(N)cc3)c3ccc([nH]3)C(c3ccc(O[C@@H]4O[C@@H](CO)[C@@H](O)[C@H](O)[C@@H]4O)cc3)c3ccc2[nH]3)cc1 (some centres not stated), the MIC (Staphylococcus aureus [10]) was 0.5 µg/mL (≈ 0.496 µM) and the MBC (Staphylococcus aureus [9]) was 1.5 µg/mL (≈ 1.49 µM).

In the case of Nc1ccc(C2c3ccc([nH]3)C(c3ccc(N)cc3)c3ccc([nH]3)C(c3ccc(O[C@@H]4O[C@@H](CO)[C@@H](O)[C@H](O)[C@@H]4O)cc3)c3ccc([nH]3)C(c3ccc(O[C@@H]4O[C@@H](CO)[C@@H](O)[C@H](O)[C@@H]4O)cc3)c3ccc2[nH]3)cc1 (some centres not stated), the MIC (Staphylococcus aureus [2]) is reported as > 3 µg/mL.

For N=C(N)NCCCC(NC(=O)CCCCOc1ccccc1C1c2ccc([nH]2)C(c2ccc(O[C@@H]3O[C@@H](CO)[C@@H](O)[C@H](O)[C@@H]3O)cc2)c2ccc([nH]2)C(c2ccc(O[C@@H]3O[C@@H](CO)[C@@H](O)[C@H](O)[C@@H]3O)cc2)c2ccc([nH]2)C(c2ccc(O[C@@H]3O[C@@H](CO)[C@@H](O)[C@H](O)[C@@H]3O)cc2)c2ccc1[nH]2)C(=O)NCC(=O)NC(CC(=O)O)C(=O)O (some centres not stated), the MIC (Staphylococcus aureus [8]) was 1 µg/mL (≈ 0.625 µM) and the MBC (Staphylococcus aureus [9]) was 1.5 µg/mL (≈ 0.938 µM).

For N=C(N)NCCCC(NC(=O)CCCOc1ccc(C2c3ccc([nH]3)C(c3ccc(O[C@@H]4O[C@@H](CO)[C@@H](O)[C@H](O)[C@@H]4O)cc3)c3ccc([nH]3)C(c3ccc(O[C@@H]4O[C@@H](CO)[C@@H](O)[C@H](O)[C@@H]4O)cc3)c3ccc([nH]3)C(c3ccc(O[C@@H]4O[C@@H](CO)[C@@H](O)[C@H](O)[C@@H]4O)cc3)c3ccc2[nH]3)cc1)C(=O)NCC(=O)NC(CC(=O)O)C(=O)O (some centres not stated), the MIC (Staphylococcus aureus [8]) was 1 µg/mL (≈ 0.631 µM) and the MBC (Staphylococcus aureus [9]) was 1.5 µg/mL (≈ 0.946 µM).

In the case of Cc1ccc(C2c3ccc([nH]3)C(c3ccc(C)cc3)c3ccc([nH]3)C(c3ccc(OCCCC(=O)NC(CCCN=C(N)N)C(=O)NCC(=O)NC(CC(=O)O)C(=O)O)cc3)c3ccc([nH]3)C(c3ccc(C)cc3)c3ccc2[nH]3)cc1 (configuration not stated), the MBC (Staphylococcus aureus [1]) is reported as > 3 µg/mL and the MIC (Staphylococcus aureus [2]) is reported as > 2.5 µg/mL.

Cc1ccc(C2c3ccc([nH]3)C(c3ccc(C)cc3)c3ccc([nH]3)C(c3ccccc3OCCCC(=O)NC(CCCN=C(N)N)C(=O)NCC(=O)NC(CC(=O)O)C(=O)O)c3ccc([nH]3)C(c3ccc(C)cc3)c3ccc2[nH]3)cc1 (configuration not stated) was tested, and the MBC (Staphylococcus aureus [1]) was > 3 µg/mL and the MIC (Staphylococcus aureus [2]) was > 2.5 µg/mL.

With Cc1ccc(C2c3ccc([nH]3)C(c3ccc(C)cc3)c3ccc([nH]3)C(c3ccc(N)cc3)c3ccc([nH]3)C(c3ccc(C)cc3)c3ccc2[nH]3)cc1 (configuration not stated) the MBC (Staphylococcus aureus [1]) was > 3 µg/mL and the MIC (Staphylococcus aureus [2]) was > 2.5 µg/mL.

In the case of Cc1ccc(C2c3ccc([nH]3)C(c3ccc(C)cc3)c3ccc([nH]3)C(c3ccccc3NC(=O)C(N)CO)c3ccc([nH]3)C(c3ccc(C)cc3)c3ccc2[nH]3)cc1 (configuration not stated), the MIC (Staphylococcus aureus [2]) is reported as > 3 µg/mL.

With Cc1ccc(C2c3ccc([nH]3)C(c3ccc(C)cc3)c3ccc([nH]3)C(c3ccc(OCCCC(=O)N(CCCN)CCCCN)cc3)c3ccc([nH]3)C(c3ccc(C)cc3)c3ccc2[nH]3)cc1 (configuration not stated) the MIC (Staphylococcus aureus [8]) was 1 µg/mL (≈ 1.12 µM) and the MBC (Staphylococcus aureus [9]) was 1.5 µg/mL (≈ 1.68 µM).

C=CC1=C(C)/C2=C/c3[nH]c(c(C)c3C=C)/C=c3\[nH]/c(c(CCC(=O)NCCCCN(CCCN)CCCCNCCCN)c3C)=C\C3=NC(CC1=N2)C(C)=C3CCC(=O)NCCCCN(CCCN)CCCCNCCCN (configuration not stated) showed an MIC (Staphylococcus aureus [8]) of 1 µg/mL (≈ 0.93 µM), an MBC (Escherichia coli [11]) of 2 µg/mL (≈ 1.86 µM) and an MBC (Staphylococcus aureus [12]) of 1.5 µg/mL (≈ 1.39 µM).

For Cc1ccc(C2c3ccc([nH]3)C(c3ccc(C)cc3)c3ccc([nH]3)C(c3ccc(OCCCC(=O)N(CCCN)CCCCNCCCN)cc3)c3ccc([nH]3)C(c3ccc(C)cc3)c3ccc2[nH]3)cc1 (configuration not stated), the MIC (Staphylococcus aureus [7]) was 1.5 µg/mL (≈ 1.58 µM) and the MBC (Staphylococcus aureus [1]) was > 1.5 µg/mL.

In the case of Cc1ccc(C2c3ccc([nH]3)C(c3ccc(C)cc3)c3ccc([nH]3)C(c3ccc(NC(=O)C(N)CO)cc3)c3ccc([nH]3)C(c3ccc(C)cc3)c3ccc2[nH]3)cc1 (configuration not stated), the MIC (Staphylococcus aureus [2]) is reported as > 3 µg/mL.
